Laboratory results published in US12397004B2, “Nasal delivery of low-dose aspirin for the treatment of neurodegenerative and lysosomal storage diseases” (Rush University Medical Center, priority 2018, dated 2025).

Assays:
[1] = test system: adoptively-transferred EAE; test: Adoptive-transfer EAE in female SJL/J mice: clinical symptoms, grip test, rotorod after aspirin nebulization; type: in vivo; details: 0.2 and 0.4 mg/kg body wt/d
Procedure: FIG. 2A-2C. Nebulization of low-dose aspirin reduced clinical symptoms of experimental allergic encephalomyetis (EAE) in female SJL/J mice. 2A) EAE was induced in 4-5 week old female SLJ/mice by adoptive transfer of myelin basic protein (MBP) primed T cells and from 9 days post-transfer (dpt), mice were treated with different doses of aspirin once daily for nebulization. Mice (n=6 per group in two independent experiments) were scored daily. On 16 dpt (acute phase), mice were examined for grip test (2B) and rotorod (2C). Results are presented as mean±SEM of six (6) mice per group. ^ap<0.001 vs control; ^bp<0.001 vs EAE by two-samples t-tests. Oral tablets of baby aspirin with a standard dosage of 81 mg were solubilized in hot double distilled water and cooled to room temperature. This liquid formulation was made fresh every week. In mice, an aspirin dose of 1 mg/kg body wt/d aspirin is equivalent to “Baby Aspirin” (81 mg tablet per adult). A Buxco Inhalation Tower All-In-One Controller by DSI™ was used for air supply for nebulization (FIG. 1A). A whole body chamber was fitted with an Aeroneb® Ultrasonic Nebulizer (FIG. 1B) supplied with air from a Buxco bias flow pump. Mice were allowed to nebulize aspirin at doses of […] mg/kg body wt/d (solubilized in a volume of 100 μl double-distilled water/mouse) for 3 min. Therefore, control group of mice also received 100 μl water by nebulization. Experimental allergic encephalomyelitis (EAE) is an animal model of MS, the most common human demyelinating disease. RR-EAE was induced in female SJL/J mice by adoptive transfer of myelin […] (MBP) primed T cells (FIG. 2A). As expected, induction of EAE reduced grip test (FIG. 2B) and rotorod (FIG. 2C) performances of mice. Mice were then nebulized with aspirin (0.2 and 0.4 mg/kg body wt/d in a volume of 100 μl/mouse) from 9 days post-transfer (dpt) of MBP-primed T cells. The control EAE group were treated with only water via nebulization. A dose of 0.2 mg/kg body wt/d aspirin equates to approximately 16 mg per adult. Clinical symptoms were monitored every day until 38 dpt. […]

CD4+Foxp3+ Tregs = test: FACS of lymph node cells of EAE mice for Foxp3 and CD4 (Tregs); type: in vivo, female SJL/J mice; details: 0.2 and 0.4 mg/kg body wt/d, nebulization from 9 dpt, 16 dpt
Procedure: FIG. 3A-3B. Nebulization of low-dose aspirin improves regulatory T cells (Tregs) in vivo in mice with adoptive transfer EAE. Lymph node cells of control, EAE (16 dpt) and low doses of aspirin-treated EAE mice (16 dpt receiving 0.2 and 0.4 mg/kg body wt/d aspirin in 100 μl water from 9 dpt via nebulization) were analyzed by fluorescence activated cell sorting (FACS) for Foxp3 and CD4 (3A). The mean fluorescence intensity (MFI) of Foxp3 in CD4+ population was calculated by using CellQuest software (3B). Data were mean±SEM of four mice per group. ^ap<0.001 vs control; ^bp<0.001 vs EAE by two-samples t-tests. Tregs are most important immunomodulatory subtype of T lymphocytes (Sakaguchi, 2005; Sakaguchi and Powrie, 2007) that are known to suppress EAE and MS. Nebulization of aspirin was further investigated to determine whether nebulization was capable of enriching Tregs in vivo in EAE mice. EAE mice receiving aspirin nebulization from 9 dpt were sacrificed on 16 dpt, followed by analysis of Tregs in lymph node cells (LNC). Foxp3 protein is currently considered as the most important marker of Tregs and by dual fluorescence-activated cell sorting (FACS) staining, we found decrease in CD4^+Foxp3^+ Tregs in LNC of EAE mice (FIG. 3A-B). However, nebulization of EAE mice with aspirin at both 0.2 and 0.4 mg/kg body wt/d doses protected CD4+Foxp3+ Tregs (FIG. 3A-B).

CD4+IL-17+ T cells = test: FACS of lymph node cells of EAE mice for IL-17 and CD4 (Th17 response); type: in vivo, female SJL/J mice; details: 0.2 and 0.4 mg/kg body wt/d, nebulization from 9 dpt, 16 dpt
Procedure: FIG. 4A-4B. Nebulization of low-dose aspirin suppresses the Th17 response in vivo in mice with adoptive transfer EAE. Lymph node cells of control, EAE (16 dpt) and low doses of aspirin-treated EAE mice (16 dpt receiving 0.2 and 0.4 mg/kg body wt/d aspiring in 100 μl water from 9 dpt via nebulization) were analyzed by FACS for IL-17 and CD4 (4A). The MFI of IL-17 in CD4+ population was calculated by using CellQuest software (4B). Data were mean±SEM of four mice per group. ^ap<0.001 vs control; ^bp<0.001 vs EAE by two-samples t-tests. T helper cell 17 (Th17) cells are considered to play a more important role than Th1 cells in the disease process of EAE and MS (El-behi et al., 2010). Since aspirin nebulization enriched Tregs, aspirin nebulization was tested to determine if aspirin nebulization was capable of suppressing Th17 response in vivo in EAE mice. Th17 cells are characterized by expression of IL-17 (Shi et al., 2008). […] However, nebulization of EAE mice with aspirin led to the suppression of the CD4+IL-17+ T cell population in LNC (FIG. 4A). This is also corroborated by mean fluorescence intensity (MFI) analysis of IL-17 within the CD4+ population (FIG. […]).

FAD5× mouse model of AD [2] = test: Barnes maze, hippocampus-dependent spatial behavior in FAD5× mice; type: in vivo; details: 0.2 and 0.4 mg/kg body wt/d, nebulization, 30 days
Procedure: FIG. 5A-5E. Nebulization of low-dose aspirin protects memory in the FAD5× mouse model of AD. Six to seven-month old FAD5× mice were treated with low doses (0.2 and 0.4 mg/kg body wt/d) of aspirin via nebulization. After 30 days of treatment, hippocampus-dependent spatial behavior was monitored by Barnes maze. 5A) Representative heat maps summarizing the overall activity of mice on the apparatus recorded with a Noldus camera and visualized by Ethovision XT software. 5B) Latency and 5C) number of errors made by all groups of mice. Context-dependent hippocampal behavior was analyzed by T-maze. 5D) Number of positive turns and 5E) number of negative turns of all groups of mice on an appetitive T-maze conditioning task were manually recorded. Results are presented as mean±SEM of 5 mice per group. ^ap<0.001 vs non-Tg; ^bp<0.001 vs FAD5×; ^cp<0.01 vs non-Tg; ^dp<0.05 vs FAD5×. A Buxco Inhalation Tower All-In-One Controller by DSI™ was used for air supply for nebulization (FIG. 1A). A whole body chamber was fitted with an Aeroneb® Ultrasonic Nebulizer (FIG. 1B) supplied with air from a Buxco bias flow pump. […] Hippocampus-dependent spatial learning and cognitive behavior can be reliably monitored in the Barnes maze test (Roy et al., 2013; Roy et al., 2015).

FAD5× mouse model of AD [3] = test: T-maze, context-dependent hippocampal behavior in FAD5× mice; type: in vivo; details: 0.2 and 0.4 mg/kg body wt/d, nebulization, 30 days
Procedure: FIG. 5A-5E. Nebulization of low-dose aspirin protects memory in the FAD5× mouse model of AD. Six to seven-month old FAD5× mice were treated with low doses (0.2 and 0.4 mg/kg body wt/d) of aspirin via nebulization. After 30 days of treatment, hippocampus-dependent spatial behavior was monitored by Barnes maze. 5A) Representative heat maps summarizing the overall activity of mice on the apparatus recorded with a Noldus camera and visualized by Ethovision XT software. 5B) Latency and 5C) number of errors made by all groups of mice. Context-dependent hippocampal behavior was analyzed by T-maze. 5D) Number of positive turns and 5E) number of negative turns of all groups of mice on an appetitive T-maze conditioning task were manually recorded. Results are presented as mean±SEM of 5 mice per group. ^ap<0.001 vs non-Tg; ^bp<0.001 vs FAD5×; ^cp<0.01 vs non-Tg; ^dp<0.05 vs FAD5×. T-maze apparatus monitors context-dependent hippocampal behavior, which may be a better index to test cognition in mice. […] However, similar to that observed with Barnes maze, nebulization of low doses of aspirin improved the performance of FAD5× mice on T maze as evident by increase in positive turns (FIG. 5D) and decrease in negative turns (FIG. 5E).

Aβ = test: Western blot of Aβ in hippocampal extracts of FAD5× mice (6E10 and 82E1 antibodies); type: in vivo; details: 0.2 and 0.4 mg/kg body weight/d, nebulization, 30 days, immunoblot
Procedure: FIG. 6A-6D: Nebulization of very low-dose aspirin lowers cerebral plaque load in an animal model of AD. Six-month old FAD5× transgenic mice were treated with 0.2 mg/kg body wt/d and 0.4 mg/kg body wt/d aspirin via nebulization using the Buxco Inhalation Tower. After 30 days of treatment, Aβ levels were monitored in hippocampal extracts by Western blot analysis (A & C) and densitometric analysis (B & D) using 6E10 (A & B) and 82E1 (C & D) antibodies. Actin was used as loading control. Results are presented as mean±SEM of 4 mice per group. ^ap<0.001 vs non-Tg; ^bp<0.001 vs. FAD5×. To explore whether nebulization of very low-dose aspirin was capable of reducing the amyloid load in the hippocampus, the most affected brain region in AD, of FAD5× (Tg) mice, the following experiment was performed. […] The 82E1 is known to detect both soluble and fibrillar human Aβ to a similar degree.

[4] = test system: Aβ immunoreactive plaques; test: DAB immunostaining (6E10) of hippocampal sections, plaque load in FAD5× mice; type: in vivo; details: 0.2 and 0.4 mg/kg body wt/d, nebulization, 30 days, 6E10 DAB staining
Procedure: FIG. 7A-7B: Nebulization of very low-dose aspirin lowers cerebral plaque load in an animal model of AD. Six-month old FAD5× transgenic mice were treated with 0.2 mg/kg body wt/d and 0.4 mg/kg body wt/d aspirin via nebulization using the Buxco Inhalation Tower. After 30 days of treatment, A) diaminobenzidine (DAB) staining was performed in hippocampal sections using 6E10 antibody. B) Quantification of number of plaques in the hippocampus relative to nontransgenic. Two sections (two images per section) of each of five mice per group were used in counting. All data are represented as mean±SEM. ^ap<0.001 vs non-Tg; ^bp<0.001 vs. FAD5×. Next, in order to check the amyloid deposition in the brain, hippocampal sections were labeled with 6E10 antibody by diaminobenzidine immunostaining. Parallel to the immunoblot results, there was marked abundance of AP immunoreactive plaques in the hippocampus of Tg mice (FIG. 7A-B).

myelin = test: Demyelination in spinal cord of EAE mice (MBP immunostaining, Luxol fast blue); type: in vivo, female SJL/J mice; details: 0.2 and 0.4 mg/kg body wt/d, nebulization from onset of acute phase, MBP and LFB staining
Procedure: FIG. 8A-8C: Nebulization of very low-dose aspirin protects myelin in experimental autoimmune encephalomyelitis (EAE), a mouse model of multiple sclerosis. EAE was induced in female SJL/J mice (4-6 week old) by adoptive transfer of MBP-primed T cells. Mice were treated with 0.2 mg/kg body wt/d and 0.4 mg/kg body wt/d aspirin via nebulization using the Buxco Inhalation Tower from the onset of acute phase. A) Spinal cord sections were immunostained with MBP (red). B) Sections were also stained with Luxol fast blue. Digital images were collected under bright field setting using a 40× objective. Demyelination was represented quantitatively (C). Data are expressed as the mean±SEM of five different mice per group. […]. EAE is an animal model of human demyelinating disease multiple sclerosis (MS). It was determined whether aspirin nebulization decreased demyelination in mice with EAE. To examine demyelination, spinal cord sections were stained with MBP, a major component of myelin. Moreover, spinal cord sections were also stained with luxol fast blue (LFB), which reacts with myelin. As evident from MBP immunostaining (FIG. 8A) and LFB staining (FIG. 8B), there were widespread demyelination zones in the white matter in mice with EAE.

FAD5× mouse model of AD [5] = details: oral, 2 mg/kg body wt/d; cited from earlier work
[6] = nebulization from 9 dpt, tested 16 dpt

## CC(=O)Oc1ccccc1C(=O)O [aspirin, acetylsalicylic acid]
[1]; [6]
  grip test activity of EAE mice: significantly improved
  rotorod activity of EAE mice: significantly improved
[1]; nebulization once daily from 9 dpt, monitored until 38 dpt
  clinical manifestations of adoptively-transferred EAE: strongly inhibited
CD4+Foxp3+ Tregs
  CD4+Foxp3+ Tregs in lymph node cells: protected
CD4+IL-17+ T cells
  CD4+IL-17+ T cell population in lymph node cells: suppression
FAD5× mouse model of AD [2]
  Barnes maze errors: decreased
  Barnes maze latency: significantly improved
FAD5× mouse model of AD [3]
  T-maze negative turns: decrease
  T-maze positive turns: increase
Aβ
  level of Aβ in the hippocampus, 6E10 antibody: significantly reduced
[4]
  plaque load in the hippocampus: decreasing the plaque load
myelin
  loss of myelin in the spinal cord (demyelination): prevented the loss of myelin
FAD5× mouse model of AD [5]
  memory and learning: protect memory and learning
